Source: patent publication US9375004B2 (Bayer Intellectual Property GmbH, priority 2010, dated 2016)

Assay: logP by HPLC on reversed-phase column (EEC Directive 79/831 Annex V.A8)
Details: EEC Directive 79/831 Annex V.A8
[1] = HPLC on reversed-phase column (C 18)
[2] = HPLC on a reversed-phase column (C 18)

With `Cn1nc(C(F)F)c(C(=O)Nc2ccccc2-c2cccc([Si](C)(C)C)c2)c1Cl` [compound 132] the logP [1] was 5.25.

In the case of `Cn1nc(C(F)F)c(C(=O)Nc2cccc(-c3ccc([Si](C)(C)C)cc3)c2)c1F` [compound 239], the logP [1] is reported as 5.03.

Compound `Cn1nc(C(F)F)c(C(=O)Nc2ccccc2OCc2ccccc2)c1F` [compound 158] has a logP [1] of 3.67.

For `CC(C)c1ccccc1NC(=O)c1c(C(F)F)nn(C)c1F` [compound 1], the logP [1] was 2.82.

`CC(C)COc1ccc(-c2cccc(NC(=O)c3c(C(F)F)nn(C)c3Cl)c2)cc1` [compound 236] gave a logP [1] of 4.83.

Compound `Cn1nc(C(F)F)c(C(=O)Nc2cccc(-c3cccc(OC(F)(F)F)c3)c2)c1F` [compound 242] has a logP [1] of 4.11.

`Cn1nc(C(F)F)c(C(=O)Nc2ccccc2-c2ccc(OC(F)(F)F)cc2)c1F` [compound 145] showed a logP [1] of 3.92.

Compound `CCOc1ccc(NC(=O)c2c(C(F)F)nn(C)c2Cl)cc1OCC` [compound 168] has a logP [1] of 2.70.

For `Cn1nc(C(F)F)c(C(=O)Nc2cccc(-c3cccc(Cl)c3Cl)c2)c1Cl` [compound 228], the logP [1] was 4.21.

With `Cn1nc(C(F)F)c(C(=O)Nc2ccccc2-c2cccc(OC(F)(F)F)c2)c1Cl` [compound 143] the logP [1] was 4.11.

`Cn1nc(C(F)F)c(C(=O)Nc2cccc(Oc3ccccc3)c2)c1Cl` [compound 251] gave a logP [2] of 3.56.

`Cn1nc(C(F)F)c(C(=O)Nc2cccc(-c3cccc([Si](C)(C)C)c3)c2)c1F` [compound 237] gave a logP [1] of 4.96.

Compound `CC(C)Oc1cccc(-c2ccccc2NC(=O)c2c(C(F)F)nn(C)c2F)c1` [compound 111] has a logP [1] of 3.96.

For `Cn1nc(C(F)F)c(C(=O)Nc2cccc(-c3ccc(C(C)(C)C)cc3)c2)c1F` [compound 219], the logP [1] was 4.73.

For `Cn1nc(C(F)F)c(C(=O)Nc2cccc(OCC(F)(F)F)c2)c1Cl` [compound 187], the logP [1] was 3.06.

`Cn1nc(C(F)F)c(C(=S)Nc2ccccc2C2CC2C2CC2)c1Cl` (single isomer, unassigned) [Example 49] showed a logP [1] of 3.79.

Work on `CC(C)c1ccccc1NC(=O)c1c(C(F)F)nn(C)c1Cl` [compound 2] yielded a logP [1] of 3.02.

In the case of `Cn1nc(C(F)F)c(C(=O)Nc2ccc(-c3ccccc3)cc2)c1F` [compound 264], the logP [2] is reported as 3.33.

In the case of `Cc1cccc(CCC(C)(C)C)c1NC(=O)c1c(C(F)F)nn(C)c1F` [compound 15], the logP [1] is reported as 3.85.

Compound `CC(C)c1ccc(-c2cccc(NC(=O)c3c(C(F)F)nn(C)c3F)c2)cc1` [compound 215] has a logP [1] of 4.46.

In the case of `CCC(C)Oc1cc(NC(=O)c2c(C(F)F)nn(C)c2F)ccc1C` (centres unmarked) [compound 179], the logP [1] is reported as 3.85.

`Cn1nc(C(F)F)c(C(=O)Nc2ccc(Oc3ccccc3)cc2)c1F` [compound 268] showed a logP [2] of 3.29.

`CC(C)c1cccc(-c2ccccc2NC(=O)c2c(C(F)F)nn(C)c2F)c1` [compound 93] gave a logP [1] of 4.30.

`C/C(=N\OC(C)(C)C)c1ccc(-c2ccccc2NC(=O)c2c(C(F)F)nn(C)c2Cl)cc1` [compound 157] showed a logP [1] of 5.54.

Work on `Cn1nc(C(F)F)c(C(=O)Nc2cccc(Oc3ccccc3)c2)c1F` [compound 250] yielded a logP [2] of 3.35.

In the case of `Cn1nc(C(F)F)c(C(=O)Nc2cccc(-c3ccc([Si](C)(C)C)cc3)c2)c1Cl` [compound 240], the logP [1] is reported as 5.25.

Work on `CC(C)Oc1cccc(-c2ccccc2NC(=O)c2c(C(F)F)nn(C)c2Cl)c1` [compound 112] yielded a logP [1] of 4.36.

For `Cn1nc(C(F)F)c(C(=O)Nc2cccc(-c3ccc(OC(F)(F)F)cc3)c2)c1F` [compound 243], the logP [1] was 4.14.

Compound `Cn1nc(C(F)F)c(C(=O)Nc2ccccc2OCc2ccccc2)c1Cl` [compound 159] has a logP [1] of 3.99.

Compound `Cn1nc(C(F)F)c(C(=O)Nc2ccccc2-c2cc(F)cc(F)c2)c1F` [compound 91] has a logP [1] of 3.31.

Compound `Cn1nc(C(F)F)c(C(=O)Nc2cccc(-c3ccc(F)c(Cl)c3)c2)c1F` [compound 217] has a logP [1] of 3.89.

`Cn1nc(C(F)F)c(C(=O)Nc2cccc3c2OCCO3)c1F` [compound 59] gave a logP [1] of 2.44.

With `Cn1nc(C(F)F)c(C(=O)Nc2ccccc2C2CC2)c1F` [compound 45] the logP [1] was 2.96.

In the case of `CC(C)c1ccc(-c2cccc(NC(=O)c3c(C(F)F)nn(C)c3Cl)c2)cc1` [compound 216], the logP [1] is reported as 4.68.

Work on `Cn1nc(C(F)F)c(C(=O)Nc2cccc3c2OC(F)(F)O3)c1Cl` [compound 63] yielded a logP [1] of 3.00.

`CC(C)=CCc1ccccc1NC(=O)c1c(C(F)F)nn(C)c1F` [compound 6] showed a logP [1] of 3.20.

For `Cn1nc(C(F)F)c(C(=O)Nc2ccccc2Br)c1F` [compound 43], the logP [1] was 2.82.

For `Cn1nc(C(F)F)c(C(=O)Nc2cccc(-c3cc(F)cc(F)c3)c2)c1F` [compound 209], the logP [1] was 3.62.

For `Cn1nc(C(F)F)c(C(=O)Nc2cccc3c2OCCO3)c1Cl` [compound 58], the logP [1] was 2.70.

For `CC(C)Oc1ccc(-c2cccc(NC(=O)c3c(C(F)F)nn(C)c3F)c2)cc1` [compound 223], the logP [1] was 3.96.

Compound `Cn1nc(C(F)F)c(C(=O)Nc2cccc(Br)c2)c1Cl` [compound 190] has a logP [1] of 3.04.

`Cn1nc(C(F)F)c(C(=O)Nc2ccc3c(c2)OCO3)c1Cl` [compound 195] gave a logP [1] of 2.20.

Compound `CC(C)COc1ccc(-c2ccccc2NC(=O)c2c(C(F)F)nn(C)c2Cl)cc1` [compound 135] has a logP [1] of 4.96.

`C=C(C)COc1cccc(NC(=O)c2c(C(F)F)nn(C)c2Cl)c1` [compound 177] showed a logP [1] of 3.33.

For `Cn1nc(C(F)F)c(C(=O)Nc2cccc(-c3ccc(Cl)cc3)c2)c1F` [compound 207], the logP [1] was 3.83.

Compound `CO/N=C(\C)c1ccc(-c2cccc(NC(=O)c3c(C(F)F)nn(C)c3Cl)c2)cc1` [compound 234] has a logP [1] of 4.11.

`CCOCCOc1cc(NC(=O)c2c(C(F)F)nn(C)c2Cl)ccc1C` [compound 184] showed a logP [1] of 3.13.

`CC(C)c1ccc(-c2ccccc2NC(=O)c2c(C(F)F)nn(C)c2Cl)cc1` [compound 97] gave a logP [1] of 4.86.

Work on `Cn1nc(C(F)F)c(C(=O)Nc2ccccc2Sc2ccc(Cl)cc2)c1Cl` [compound 165] yielded a logP [1] of 4.63.

In the case of `Cn1nc(C(F)F)c(C(=O)Nc2ccccc2-c2ccc(F)c(Cl)c2)c1Cl` [compound 103], the logP [1] is reported as 3.85.

`CO/N=C(\C)c1ccc(-c2ccccc2NC(=O)c2c(C(F)F)nn(C)c2Cl)cc1` [compound 130] showed a logP [1] of 4.11.

With `Cn1nc(C(F)F)c(C(=O)Nc2ccccc2SC(F)(F)C(F)(F)C(F)(F)F)c1F` [compound 42] the logP [1] was 4.25.

`Cn1nc(C(F)F)c(C(=O)Nc2cccc(C3CC3)c2)c1F` [compound 191] showed a logP [1] of 2.90.

`Cn1nc(C(F)F)c(C(=O)Nc2ccccc2-c2ccc(C(F)(F)F)cc2)c1Cl` [compound 120] showed a logP [1] of 3.94.

For `Cc1ccccc1Oc1ccccc1NC(=O)c1c(C(F)F)nn(C)c1F` [compound 160], the logP [1] was 3.96.

Compound `CC1CCCC(c2ccccc2NC(=O)c2c(C(F)F)nn(C)c2F)C1` (centres unmarked) [compound 52] has a logP [1] of 3.23.

For `Cn1nc(C(F)F)c(C(=O)Nc2cccc(Cl)c2SCC(F)F)c1F` [compound 33], the logP [1] was 3.53.

For `Cn1nc(C(F)F)c(C(=O)Nc2ccccc2C(C)(C)C)c1Cl` [compound 4], the logP [1] was 3.21.

`CCOc1ccc(NC(=O)c2c(C(F)F)nn(C)c2F)cc1OCC` [compound 167] gave a logP [1] of 2.54.

Compound `Cn1nc(C(F)F)c(C(=O)Nc2ccccc2-c2ccc(OC(F)(F)F)cc2)c1Cl` [compound 144] has a logP [1] of 4.19.

`Cc1ccccc1Oc1ccccc1NC(=O)c1c(C(F)F)nn(C)c1Cl` [compound 161] showed a logP [1] of 4.29.

`Cc1ccc(CCC(C)(C)C)c(NC(=O)c2c(C(F)F)nn(C)c2F)c1` [compound 17] showed a logP [1] of 4.29.

In the case of `Cn1nc(C(F)F)c(C(=O)Nc2ccccc2OCc2cc(Cl)ccc2Cl)c1F` [compound 162], the logP [1] is reported as 4.56.

In the case of `Cn1nc(C(F)F)c(C(=O)Nc2ccccc2-c2cccc(Cl)c2Cl)c1F` [compound 121], the logP [1] is reported as 3.76.

`Cn1nc(C(F)F)c(C(=O)Nc2ccc(C3CCCCC3)cc2)c1Cl` [compound 263] showed a logP [2] of 4.44.

`Cn1nc(C(F)F)c(C(=O)Nc2cccc(OCC(C)(C)C)c2)c1F` [compound 182] showed a logP [1] of 3.96.

Work on `CC(C)CCc1cc(F)ccc1NC(=O)c1c(C(F)F)nn(C)c1F` [Example 10] yielded a logP [1] of 3.67.

`Cn1nc(C(F)F)c(C(=O)Nc2cc(F)ccc2SCC(F)F)c1F` [compound 34] gave a logP [1] of 3.33.

In the case of `CC(C)c1cccc(-c2cccc(NC(=O)c3c(C(F)F)nn(C)c3Cl)c2)c1` [compound 213], the logP [1] is reported as 4.61.

`Cn1nc(C(F)F)c(C(=S)Nc2ccccc2C2CC2C2CC2)c1Cl` (single isomer, unassigned) [Example 50] gave a logP [1] of 3.81.

For `Cn1nc(C(F)F)c(C(=O)Nc2cccc(-c3ccc(Cl)cc3Cl)c2)c1F` [compound 229], the logP [1] was 4.21.

`Cc1cc(C)cc(-c2ccccc2NC(=O)c2c(C(F)F)nn(C)c2Cl)c1` [compound 82] gave a logP [1] of 4.51.

With `Cn1nc(C(F)F)c(C(=O)Nc2cccc(-c3cccc(OC(F)(F)F)c3)c2)c1Cl` [compound 241] the logP [1] was 4.31.

Work on `Cc1cc(C)cc(-c2ccccc2NC(=O)c2c(C(F)F)nn(C)c2F)c1` [compound 81] yielded a logP [1] of 4.11.

`Cn1nc(C(F)F)c(C(=O)Nc2cccc(Sc3ccc(C(C)(C)C)cc3)c2)c1Cl` [compound 259] gave a logP [2] of 5.17.

Compound `Cn1nc(C(F)F)c(C(=O)Nc2ccccc2-c2ccc([Si](C)(C)C)cc2)c1Cl` [compound 136] has a logP [1] of 5.39.

`Cc1ccccc1-c1cccc(NC(=O)c2c(C(F)F)nn(C)c2F)c1` [compound 201] gave a logP [1] of 3.63.

With `CC(C)O/N=C/c1ccc(-c2cccc(NC(=O)c3c(C(F)F)nn(C)c3F)c2)cc1` [compound 245] the logP [2] was 4.46.

Work on `Cn1nc(C(F)F)c(C(=O)Nc2ccc3c(c2)OCO3)c1F` [compound 194] yielded a logP [1] of 2.05.

With `Cn1nc(C(F)F)c(C(=O)Nc2ccccc2-c2cccc([Si](C)(C)C)c2)c1F` [compound 133] the logP [1] was 4.83.

`Cn1nc(C(F)F)c(C(=O)Nc2ccccc2-c2cc(Cl)cc(Cl)c2)c1F` [compound 127] gave a logP [1] of 4.01.

Compound `Cn1nc(C(F)F)c(C(=O)Nc2ccccc2-c2ccc(C(C)(C)C)cc2)c1Cl` [compound 110] has a logP [1] of 5.14.

Compound `Cn1nc(C(F)F)c(C(=O)Nc2cc(Cl)ccc2CCC(C)(C)C)c1F` [compound 18] has a logP [1] of 4.51.
